Format in all cases: physicochemical
The nature of data set [1]: Flowability of potassium clavulanate crystalline forms. The note with it: crystalline form comparison, Example 5.
The nature of data set [2]: Particle size distribution of potassium clavulanate crystalline forms. The note with it: crystalline form comparison, Example 5.
Data set [3] can be described thus: Stability / shelf-life compared with prior art crystalline forms. The note with it: compared to rosette, needle and starburst forms; generally lower polymer level.

Regarding `O=C(O)[C@H]1/C(=C/CO)O[C@@H]2CC(=O)N21` [Rosettes, potassium clavulanate], the Flowabiiity in data set [1] came out at 6.1. Besides, in data set [2], the “Particle Size Distribution” value is on record as 34.8- 66.4 microns.

As for `O=C(O)[C@H]1/C(=C/CO)O[C@@H]2CC(=O)N21` [Rosette-like Starbursts, potassium clavulanate], the Flowabiiity in data set [1] was 4.8. The “Particle Size Distribution” value in data set [2] is 35.1- 97.9 microns. For the same molecule, the stability and shelf-life result in data set [3] is recorded as “greater stability”.

For the molecule `O=C(O)[C@H]1/C(=C/CO)O[C@@H]2CC(=O)N21` [Needles/rods, potassium clavulanate], the Flowabiiity in data set [1] stood at 3.4. In addition, the “Particle Size Distribution” value in data set [2] was 34.1-67.3 microns.

With `O=C(O)[C@H]1/C(=C/CO)O[C@@H]2CC(=O)N21` [Starbursts/Broken Starbursts, potassium clavulanate], in data set [2], the “Particle Size Distribution” value is 33.5-70.5 microns.

For the origin of these results see US6414142B1, “Process for preparing potassium clavulanate” (SmithKline Beecham Corporation, priority 1996, dated 2002).
